Laboratory results taken from BindingDB's records for patent US11185537 (Novartis, 2021).

Tests used:
[1] = biological target: DNA-binding protein Ikaros (Human, UniProt Q13422)
[2] = biological target: Zinc finger protein Helios (Homo sapiens, UniProt Q9UKS7)
Sequence of Zinc finger protein Helios (Q9UKS7 whole entry): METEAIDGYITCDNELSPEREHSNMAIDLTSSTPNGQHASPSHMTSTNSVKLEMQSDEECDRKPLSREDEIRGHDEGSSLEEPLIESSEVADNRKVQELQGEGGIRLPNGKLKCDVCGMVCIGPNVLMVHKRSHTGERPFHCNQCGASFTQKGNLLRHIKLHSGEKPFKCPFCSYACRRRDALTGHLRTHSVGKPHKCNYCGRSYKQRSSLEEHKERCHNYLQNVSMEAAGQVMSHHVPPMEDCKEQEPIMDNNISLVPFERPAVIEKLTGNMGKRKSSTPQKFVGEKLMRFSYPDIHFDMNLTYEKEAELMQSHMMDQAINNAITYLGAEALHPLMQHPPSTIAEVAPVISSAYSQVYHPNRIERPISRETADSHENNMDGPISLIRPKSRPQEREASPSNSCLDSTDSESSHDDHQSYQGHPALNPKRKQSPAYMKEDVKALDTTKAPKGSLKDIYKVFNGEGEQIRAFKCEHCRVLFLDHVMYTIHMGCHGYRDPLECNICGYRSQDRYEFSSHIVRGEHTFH

Sequence of DNA-binding protein Ikaros (Q13422 whole entry): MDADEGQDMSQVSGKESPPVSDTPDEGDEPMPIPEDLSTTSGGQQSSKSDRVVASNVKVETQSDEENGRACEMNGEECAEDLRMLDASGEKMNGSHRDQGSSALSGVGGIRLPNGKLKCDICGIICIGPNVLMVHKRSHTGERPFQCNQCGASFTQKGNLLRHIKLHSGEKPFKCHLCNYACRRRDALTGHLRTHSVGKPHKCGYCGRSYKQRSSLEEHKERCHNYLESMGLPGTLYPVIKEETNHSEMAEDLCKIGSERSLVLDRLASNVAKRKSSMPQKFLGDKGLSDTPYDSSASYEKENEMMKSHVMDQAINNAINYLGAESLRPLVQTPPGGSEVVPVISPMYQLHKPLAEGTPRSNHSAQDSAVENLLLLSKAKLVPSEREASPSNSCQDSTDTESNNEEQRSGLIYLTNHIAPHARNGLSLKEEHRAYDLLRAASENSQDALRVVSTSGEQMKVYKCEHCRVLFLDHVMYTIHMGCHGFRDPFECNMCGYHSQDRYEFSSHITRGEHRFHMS

Compound: CN[C@H]1CC=CC[C@@H]1N(C)c1ccc2c(c1)CN(C1CCC(=O)NC1=O)C2=O (some centres not stated) [US11185537, Compound Mix]
- EC50 [1]: 120 nM
- EC50 [2]: 230 nM
